Assay: Dissolution of olopatadine in the formulation (minimum PVA)
Assay type: physicochemical
Conditions: Olopatadine about 2.0 mg/mL
Description: Initial experiments were conducted to examine the possible concentration ranges for the organic modifiers which would initially solubilize Olopatadine during formulation and maintain the solution stability such that no crystallization of the drug product would occur. An experiment was carried out to determine the minimum amount of PVA needed to obtain the total dissolution of Olopatadine in the formulation. The minimum amount of PVA determined to be effective in solubilizing the drug substance during formulation and which prevented crystal growth in the drug product was 0.5%. Concentrations of such PVA below 0.5% are insufficient to permit dissolution of Olopatadine concentrations of about 2.0 mg/mL. Concentrations at or […] were susceptible to the drug substance starting to dissolve but then precipitating back out of solution during formulation.

Minimum amount of PVA effective in solubilizing the drug substance and preventing crystal growth: 0.5%
SMILES: CN(C)CC/C=C1/c2ccccc2COc2ccc(CC(=O)O)cc21 [Olopatadine, {(11Z)-11-[3-(dimethylamino)propylidene]-6,11-dihydrodibenzo[b,e]oxepin-2-yl} acetic acid]

Reference: patent US20160271097A1, “FORMULATION OF OLOPATADINE” (NEPHRON PHARMACEUTICALS CORPORATION, priority 2013, published 2016)
